Assay results taken from the supplement of paper PMC10307832.

Key:
Assay in all cases: relative viability (nuclei count vs DMSO), 5 days (fraction); higher = more cells survive
[1] = compound: CC1=NC=CC(=C1)C2=CC=C(C=C2)CC(=O)NC3=CC=C(C=C3)C4=CN=CC=C4 [Wnt-C59] + N=C(N)NC(=N)NCCc1ccccc1 [Phenformin] (partner 250 µM)
Procedure, shortened: (§1)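 Five library-drug doses in √10 steps were combined with a fixed anchor-drug dose, or a single drug was given alone, by pin tool to lung cancer cell lines in 1536-well plates the day after seeding. Nuclei were stained and counted after 5 days. Relative viability is the nuclei count in treated wells over that in vehicle wells, taken as the median of duplicate plates.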

[2] = compound: CC1=NC=CC(=C1)C2=CC=C(C=C2)CC(=O)NC3=CC=C(C=C3)C4=CN=CC=C4 [Wnt-C59] + Cc1cc(Nc2cc(N3CCN(C)CC3)nc(Sc3ccc(NC(=O)C4CC4)cc3)n2)n[nH]1 [Tozasertib] (partner 0.1 µM)
Procedure, shortened: as §1

[3] = compound: CC1=NC=CC(=C1)C2=CC=C(C=C2)CC(=O)NC3=CC=C(C=C3)C4=CN=CC=C4 [Wnt-C59] + CC1(C)CCC(c2ccc(Cl)cc2)=C(CN2CCN(c3ccc(C(=O)NS(=O)(=O)c4ccc(N[C@H](CCN5CCOCC5)CSc5ccccc5)c(S(=O)(=O)C(F)(F)F)c4)cc3)CC2)C1 [Navitoclax] (partner 0.5 µM)
Procedure, shortened: as §1

[4] = compound: CS(=O)(=O)CCNCc1ccc(-c2ccc3ncnc(Nc4ccc(OCc5cccc(F)c5)c(Cl)c4)c3c2)o1 [Lapatinib] + CC(C)C[C@H](NC(=O)[C@H](Cc1ccccc1)NC(=O)c1cnccn1)B(O)O [Bortezomib] (partner 0.002 µM)
Procedure, shortened: as §1

| Cell Line | relative viability ([1]; first compound 0.001 µM) | relative viability ([1]; first compound 0.01 µM) | relative viability ([1]; first compound 0.03162 µM) | relative viability ([1]; first compound 0.1 µM) | relative viability ([2]; first compound 0.001 µM) | relative viability ([2]; first compound 0.01 µM) | relative viability ([2]; first compound 0.03162 µM) | relative viability ([2]; first compound 0.1 µM) | relative viability ([3]; first compound 0.001 µM) | relative viability ([3]; first compound 0.01 µM) | relative viability ([3]; first compound 0.03162 µM) | relative viability ([3]; first compound 0.1 µM) | relative viability ([4]; first compound 0.02 µM) | relative viability ([4]; first compound 0.06325 µM) | relative viability ([4]; first compound 0.2 µM) | relative viability ([4]; first compound 0.6325 µM) | relative viability ([4]; first compound 2 µM) |
| --- | --- | --- | --- | --- | --- | --- | --- | --- | --- | --- | --- | --- | --- | --- | --- | --- | --- |
| 201T | 0.446 | 0.43 | 0.424 | 0.452 | 0.96 | 0.923 | 1.05 | 0.952 | 1.21 | 1.2 | 1.19 | 1.2 | 1.06 | 1.12 | 1.08 | 1.08 | 1.14 |
| A549 | 0.213 | 0.144 | 0.253 | 0.169 | – | – | – | – | 1.23 | 1.31 | 1.29 | 1.12 | – | – | – | – | – |
| A-427 | 0.334 | 0.338 | 0.407 | 0.384 | 0.217 | 0.183 | 0.211 | 0.243 | 0.925 | 0.9 | 0.943 | 1 | – | 0.953 | 1.05 | 0.901 | 0.976 |
| ABC-1 | 0.237 | 0.248 | 0.257 | 0.262 | 0.15 | 0.166 | 0.164 | 0.19 | – | – | – | – | – | 0.362 | 0.324 | 0.434 | 0.333 |
| BEN | 0.292 | 0.27 | 0.269 | 0.247 | 0.478 | 0.474 | 0.497 | 0.501 | 0.0424 | 0.0676 | 0.0835 | 0.0708 | 0.665 | 0.783 | 0.637 | 0.781 | 0.608 |
| CAL-12T | 0.564 | 0.581 | 0.576 | 0.566 | 0.47 | 0.335 | 0.349 | 0.263 | 1.35 | 1.45 | 1.19 | 1.1 | – | 0.765 | 0.822 | 0.743 | 0.649 |
| COR-L23 | 0.427 | 0.471 | 0.442 | 0.416 | 0.202 | 0.237 | 0.233 | 0.19 | 1.13 | 1.02 | 1.17 | 0.944 | 0.948 | 1.07 | 1.08 | 0.934 | 0.998 |
| COR-L 105 | 0.48 | 0.509 | 0.477 | 0.479 | 0.297 | 0.332 | 0.371 | 0.437 | 0.905 | 0.733 | 0.878 | 1.02 | 0.503 | 0.512 | 0.637 | 0.524 | 0.378 |
| Calu-6 | – | – | – | – | – | – | – | – | 0.801 | 0.97 | 0.757 | 0.787 | 0.887 | 0.951 | 1.03 | 1.02 | 0.906 |
| ChaGo-K-1 | 0.557 | 0.466 | 0.531 | 0.539 | 0.221 | 0.233 | 0.242 | 0.223 | 0.657 | – | 1.07 | 1.18 | – | 1.04 | 0.863 | 0.956 | 0.738 |
| EBC-1 | – | – | – | – | – | – | – | – | 0.378 | 0.405 | 0.431 | 0.513 | 0.542 | 0.561 | 0.539 | 0.534 | 0.455 |
| EKVX | 0.225 | 0.216 | 0.216 | 0.241 | 0.437 | 0.357 | 0.406 | 0.402 | 0.991 | 0.87 | 0.896 | 0.788 | 0.888 | 0.862 | 0.914 | 0.634 | 0.161 |
| EMC-BAC-2 | 0.533 | 0.484 | 0.525 | 0.505 | 0.341 | 0.274 | 0.322 | 0.306 | 1.11 | 0.97 | 1.16 | 0.969 | 0.871 | 0.999 | 1.07 | 0.991 | 0.87 |
| EPLC-272H | 0.297 | 0.303 | 0.335 | 0.335 | 0.297 | 0.25 | 0.362 | 0.276 | 1.09 | 1 | 1.06 | 1.21 | – | 0.837 | 0.904 | 1.01 | 0.781 |
| H3255 | 0.372 | 0.321 | 0.356 | 0.332 | 0.715 | 0.616 | 0.626 | 0.63 | 0.573 | 0.502 | 0.688 | 0.558 | 0.633 | 0.735 | 0.581 | 0.575 | 0.395 |
| HARA | 0.458 | 0.49 | 0.528 | 0.447 | 0.103 | 0.135 | 0.151 | 0.088 | 1.18 | 1.17 | 1.17 | 1.13 | 1.08 | 0.579 | 1.05 | 0.961 | 0.694 |
| HCC-15 | 0.47 | 0.515 | 0.48 | 0.438 | 0.407 | 0.389 | 0.322 | 0.44 | 0.799 | 0.708 | 0.7 | 0.76 | – | 1.06 | 1.02 | 1 | 0.979 |
| HCC-44 | 0.315 | 0.201 | 0.153 | 0.23 | 1.12 | 0.909 | 0.976 | 0.864 | 1.01 | 0.904 | 1.02 | 0.954 | 0.762 | 0.855 | 0.901 | 0.953 | 0.8 |
| HCC-78 | 0.548 | 0.685 | 0.701 | 0.72 | 0.492 | 0.404 | 0.504 | 0.441 | 0.781 | 0.729 | 0.731 | 0.452 | 0.546 | – | 0.463 | 0.407 | 0.297 |
| HCC-366 | 0.614 | 0.605 | 0.668 | 0.528 | 0.156 | 0.102 | 0.111 | 0.124 | 1.06 | 0.926 | 0.932 | 1.01 | – | 1.03 | 1.06 | 0.992 | 0.935 |
